Experimental data taken from article PMC12548414 (Journal of Bacteriology, 2025).
In brackets after ≈: the same amount, converted by molar mass.

How the values were obtained:
[1] = test system: T1, E. coli pLC1021 (luc-trpAt trans-translation reporter); parameters: species or system Escherichia coli pLC1021; luc-trpAt non-stop luciferase reporter; luminescence rises when trans-translation is inhibited; normalized to KKL-35 and DMSO; details: 2 h, 20 µM
T1 construct: pLC1021 luc-trpAt reporter strain
Procedure: The luciferase screen was performed as previously described ([16]). […] 48 µL of cells was transferred to white 96-well plates, and 2 µL DMSO or 20 µM compound, or 20 µM KKL-35 was added. Plates were sealed with adhesive film, vortexed gently to mix, and incubated at room temperature for 2 h. 50 µL Bright-Glo reagent (Promega, Madison, WI) was added to each well, and the plates were sealed with adhesive film, vortexed vigorously, and incubated for an additional 10 min at room temperature. Luminescence was measured at 560 nm using a SpectraMax i3 microplate reader and readings for each plate were normalized to the average of three KKL-35-treated wells (positive control) and three DMSO-treated wells (negative control) within the plate to correct for plate-to-plate and day-to-day variations. Results from at least two biological repeats were averaged, and GraphPad Prism was used to plot the data. We screened a library of 1,601 anti-tubercular small molecules for their ability to inhibit trans-translation using a luciferase reporter in Escherichia coli. In this luc-trpAt reporter, the firefly luciferase gene has a trpA transcriptional terminator before the stop codon, such that luciferase is translated from a non-stop mRNA ([16]). When trans-translation is active, the luciferase will be tagged and degraded, but when trans-translation is inhibited, active luciferase will accumulate, resulting in a luminescent signal when luciferin is added. Luciferase activity was measured after growth in the presence of compounds from the library at 20 µM, using the known trans-translation inhibitor KKL-35 as a positive control (Fig. 1A) ([16], [17]). Compounds with activity one standard deviation above the median were scored as positive (Fig. S1 and Table S1).

E. coli ΔtolC = test system: T2, E. coli ΔtolC; experiment: microbe, parasite or virus in culture; parameters: species or system Escherichia coli ΔtolC; broth microdilution MIC, lowest concentration with no visible growth; details: Escherichia coli, 20 h, read-out: MIC
T2 construct: ΔtolC

B. anthracis = experiment: microbe, parasite or virus in culture; details: Bacillus anthracis, 20 h, read-out: MIC
M. tuberculosis = experiment: microbe, parasite or virus in culture; parameters: species or system Mycobacterium tuberculosis H37Rv ΔRD1 ΔpanCD; details: Mycobacterium tuberculosis, 168 h, read-out: MIC
ribosomal protein bL12 [2] = target: T3, ribosomal protein bL12 (Mycobacterium tuberculosis, UniProt P9WHE3); experiment: biochemical; assay type: binding
T3 construct: gene rplL; 6His-tagged M. tuberculosis bL12
T3 sequence (P9WHE3 1-130): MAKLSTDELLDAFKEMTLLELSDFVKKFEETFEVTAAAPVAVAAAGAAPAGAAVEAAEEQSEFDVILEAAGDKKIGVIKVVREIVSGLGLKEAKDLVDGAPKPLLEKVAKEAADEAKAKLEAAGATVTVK

ribosomal protein bL12 [3] = target: T4, ribosomal protein bL12 (Escherichia coli, UniProt P0A7K2); experiment: biochemical; assay type: binding
T4 construct: gene rplL
T4 sequence (P0A7K2 2-121): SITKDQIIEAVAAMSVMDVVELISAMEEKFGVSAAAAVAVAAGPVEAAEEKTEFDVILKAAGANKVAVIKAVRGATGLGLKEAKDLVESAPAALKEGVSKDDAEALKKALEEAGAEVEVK

| Structure (SMILES) | % activation [1] [%] | other results |
| --- | --- | --- |
| CC(C)[C@H]1OC(=O)[C@H](Cc2ccccc2)N(C)C(=O)[C@@H](C(C)C)OC(=O)[C@H](Cc2ccccc2)N(C)C(=O)[C@@H](C(C)C)OC(=O)[C@H](Cc2ccccc2)N(C)C1=O [KKL-0304] | 0 |  |
| O=C(Nc1nc(NC(=O)c2ccco2)n(-c2ccccc2)n1)c1ccccc1 [KKL-1005, N-(5-benzamido-2-phenyl-1,2,4-triazol-3-yl)furan-2-carboxamide] |  | MIC (E. coli ΔtolC): 9.3 µg/mL (≈ 24.9 µM); MIC (B. anthracis): 9.3 µg/mL (≈ 24.9 µM); MIC (M. tuberculosis): 4.7 µg/mL (≈ 12.6 µM); Kd (ribosomal protein bL12 [2]): 4 ± 0.2 µM; Kd (ribosomal protein bL12 [3]): 8 ± 2 µM |
| CCc1ccc([C@@H]2C[C@H](C(F)(F)F)n3ncc(C(=O)NCc4ccc(OC)cc4)c3N2)cc1 [KKL-1692] | 0 |  |
| Cc1cccc(-c2nc(Nc3ccncn3)c3sccc3n2)n1 [KKL-1695] | 0 |  |
| Cc1cccc(-c2nc(Nc3ccncn3)c3c(C)csc3n2)n1 [KKL-1712] | 6 |  |
| O=C(NC12CC3CC(CC(C3)C1)C2)c1cc2cc(Cl)ccc2[nH]1 [KKL-1781] | 0 |  |
| c1cc2c(s1)CCOC21CCN(Cc2ccc3c(c2)OCCO3)CC1 [KKL-1815] | 0 |  |
| COc1ccc(CCNc2cc(-c3ccccc3)nc3ncnn23)cc1 [KKL-1831] | 3 |  |
| Cc1ccc2nc(C)c(C(=O)NCc3cccs3)n2c1 [KKL-1863] | 4 |  |
| CNc1nc(SC)nc2ccccc12 [KKL-1869] | 0 |  |
